Reference: patent US4695581A, “2-(3,5-dialkyl-4-hydroxyphenyl)indole derivatives” (Teikoku Hormone Mfg. Co., Ltd., priority 1984, dated 1987)
Structures can show the parent of a compound that is named as a salt.

What was measured:
[1] = system: cyclooxygenase; conditions: known from the prior art; cited from earlier work
[2] = system: lipoxygenase; conditions: known from the prior art; cited from earlier work
[3] = system: SRS-A-like active substance; test: A23187-induced pleurisy; inhibition of formation of SRS-A-like active substance in pleural exudate; type: in vivo, rat (Wistar-strain, male, 11 weeks old); conditions: Rattus norvegicus, po, p.o., 60 minutes before intrapleural A23187, rats, vs solvent control, read-out: Inhibitory activity on the formation of SRS-A-like active substance
Procedure: (1) Preparation of A23187 -induced pleurisy Under ether anaesthesia, 0.2 ml of 100 μM A23187 (prepared by adding injectable distilled water in a 2 mM A23187 ethanol solution) was administered intrapleurally to rats (Wistar-strain, male, 11 weeks old). Twenty minutes after the administration, the rats were exsanguinated and the pleural exudate was harvested. […] (2) Measurement of SRS-A-like active substance To the exudate obtained in (1) was added 4 times its volume of ice-cooled ethanol. They were well mixed, and then centrifuged. […] The solution was added to SEP-PAK® (C18) and SRS-A-like active substance was partially purified. […] The residue was dissolved in purified water in an amount corresponding to the amount of the exudate. The SRS-A-like active substance was assayed on the basis of contraction of the ileum of guinea pig (Hartley-strain, male, body weight 400-500 g) in the presence of atropine and Pyrilamine. The presence of SRS-A was confirmed by the fact that the contraction of the isolated ileum by the test solution was antagonized by FPL-55712 which is a specific antagonist for SRS-A. The results are shown in the following table. The activity of inhibiting the formation of an SRS-A-like active substance is indicated as the percent inhibition based on a control group to which only the solvent was administered.

[4] = system: SD-strain male rats; test: Toxicity, oral administration, observation for 2 weeks; type: in vivo, rat (SD-strain; conditions: 5 g/kg, 10% gum arabic suspension, 5-membered groups
Source text: The test compound was suspended in a 10% gum arabic solution, and orally administered to SD-strain male rats (body weight 100-115 g) in 5-membered groups.

[5] = system: SRS-A; test: Contraction of isolated guinea pig ileum by the test solution (confirmation of SRS-A); set-up: species or system guinea pig (Hartley-strain, male); conditions: in the presence of atropine and Pyrilamine
Procedure: The SRS-A-like active substance was assayed on the basis of contraction of the ileum of guinea pig (Hartley-strain, male, body weight 400-500 g) in the presence of atropine and Pyrilamine. The presence of SRS-A was confirmed by the fact that the contraction of the isolated ileum by the test solution was antagonized by FPL-55712 which is a specific antagonist for SRS-A.

SMILES | inhibition at 10 mg/kg [3] [%] | other results
CCCCCC#CCC#CCC#CCC#CCCCC(=O)O [5,8,11,14-eicosatetraynoic acid] | – | cyclooxygenase inhibition (lack of specificity) [1]: lack specificity and inhibit not only lipoxygenase but also cyclooxygenase; lipoxygenase inhibition [2]: lipoxygenase inhibitors
NC1=NN(c2cccc(C(F)(F)F)c2)CC1 [BW755C, 3-amino-1-(3-trifluoromethylphenyl)-2-pyrazoline] | – | cyclooxygenase inhibition (lack of specificity) [1]: lack specificity and inhibit not only lipoxygenase but also cyclooxygenase; lipoxygenase inhibition [2]: lipoxygenase inhibitors
COc1ccc2[nH]c(-c3cc(C)c(O)c(C)c3)c(C)c2c1 [Example 1, 2-(4-hydroxy-3,5-dimethylphenyl)-5-methoxy-3-methylindole] | 66.2 | death [4]: No case of death was observed
Cc1ccc2[nH]c(-c3cc(C)c(O)c(C)c3)c(C)c2c1 [Example 5, 2-(4-Hydroxy-3,5-dimethylphenyl)-3,5-dimethylindole] | 54.7 | –
CCOc1ccc2[nH]c(-c3cc(C)c(O)c(C)c3)c(C)c2c1 [Example 8, 5-Ethoxy-2-(4-hydroxy-3,5-dimethylphenyl)-3-methylindole] | 28.7 | –
Cc1cc(-c2[nH]c3ccc(OC(C)C)cc3c2C)cc(C)c1O [Example 9, 2-(4-Hydroxy-3,5-dimethylphenyl)-3-methyl-5-isopropoxyindole] | 58.4 | –
CSc1ccc2[nH]c(-c3cc(C)c(O)c(C)c3)c(C)c2c1 [Example 10, 2-(4-hydroxy-3,5-dimethylphenyl)-3-methyl-5-methylthioindole] | 41 | –
Cc1ccc2c(C)c(-c3cc(C)c(O)c(C)c3)[nH]c2c1 [Example 14, 2-(4-Hydroxy-3,5-dimethylphenyl)-3,6-dimethylindole] | 30.7 | –
Cc1cc(-c2[nH]c3c(C)cccc3c2C)cc(C)c1O [Example 16, 2-(4-Hydroxy-3,5-dimethylphenyl)-3,7-dimethylindole] | 37.5 | –
COc1cc2[nH]c(-c3cc(C)c(O)c(C)c3)c(C)c2cc1OC [Example 24, 2-(4-Hydroxy-3,5-dimethylphenyl)-5,6-dimethoxy-3-methylindole] | 70.4 | –
Cc1cc(-c2[nH]c3ccccc3c2C)cc(C)c1O [Example 30, 2-(4-hydroxy-3,5-dimethylphenyl)-3-methylindole] | 58 | inhibition at 30 mg/kg [3]: 90.2%
Cc1cc(-c2[nH]c3ccc(N)cc3c2C)cc(C)c1O [Example 33, 5-amino-2-(4-hydroxy-3,5-dimethylphenyl)-3-methylindole] | 68.1 | –
CCN(CC)CCOc1ccc2[nH]c(-c3cc(C)c(O)c(C)c3)c(C)c2c1 [Example 35, 5-(2-diethylaminoethoxy)-2-(4-hydroxy-3,5-dimethylphenyl)-3-methylindole] | 39.1 | –
Cc1cc(-c2[nH]c3ccc(OCc4ccccc4)cc3c2C)cc(C)c1O [Example 36, 5-benzyloxy-2-(4-hydroxy-3,5-dimethylphenyl)-3-methylindole] | 35.4 | –
CC(=O)Oc1ccc2[nH]c(-c3cc(C)c(O)c(C)c3)c(C)c2c1 [Example 37] | 43.7 | –
CCN(CC)CCNc1ccc2[nH]c(-c3cc(C)c(O)c(C)c3)c(C)c2c1 [Example 38, 5-(2-diethylaminoethylamino)-2-(4-hydroxy-3,5-dimethylphenyl)-3-methylindole dihydrochloride] | 38.3 | –
CCCOc1ccc2[nH]c(-c3cc(C)c(O)c(C)c3)c(C)c2c1 [Example 43, 2-(4-hydroxy-3,5-dimethylphenyl)-3-methyl-5-n-propoxyindole] | 46.2 | –
CCc1c(-c2cc(C)c(O)c(C)c2)[nH]c2ccccc12 [Example 44, 3-ethyl-2-(4-hydroxy-3,5-dimethylphenyl)indole] | 46.9 | inhibition at 30 mg/kg [3]: 87.2%
CCc1c(-c2cc(C)c(O)c(C)c2)[nH]c2ccc(OC)cc12 [Example 45, 3-ethyl-2-(4-hydroxy-3,5-dimethylphenyl)-5-methoxyindole] | 52.7 | –
CCc1cc(-c2[nH]c3ccccc3c2C)cc(CC)c1O [Example 46, 2-(3,5-diethyl-4-hydroxyphenyl)-3-methylindole] | 22.9 | inhibition at 30 mg/kg [3]: 74.2%
CCc1cc(-c2[nH]c3ccc(OC)cc3c2C)cc(CC)c1O [Example 48, 2-(3,5-diethyl-4-hydroxyphenyl)-5-methoxy-3-methylindole] | 28.3 | –
CCc1cc(-c2[nH]c3ccccc3c2CC)cc(CC)c1O [Example 50, 3-ethyl-2-(3,5-diethyl-4-hydroxyphenyl)indole] | 21.5 | –
CCCc1c(OCC(O)COc2ccc3c(=O)cc(C(=O)O)oc3c2CCC)ccc(C(C)=O)c1O (centres unmarked) [FPL-55712] | – | antagonism of contraction of the isolated ileum [5]: antagonized
